Experimental data: article PMC6736568, “Discovery of Novel Anti-cryptosporidial Activities From Natural Products by in vitro High-Throughput Phenotypic Screening” (Frontiers in Microbiology, 2019)
Structures can show the parent of a compound that is named as a salt. Where two headings read alike, the source gives them in different places.

How the values were obtained:
Cryptosporidium parvum = assay: qRT-PCR assay of the growth of C. parvum in vitro in HCT-8 host cells (primary and secondary screening, EC50); type: cell-based; conditions: Cryptosporidium parvum, HCT-8; for inhibition at 10 µM: primary screening at 10 uM, read-out: Inhibition (%); for inhibition at 3.3 µM: secondary screening at 3.3 uM, read-out: % Inhibition (3.3 uM)
[1] = primary screening at 10 uM, treated vs control

| SMILES | inhibition at 10 µM (Cryptosporidium parvum) [%] | inhibition at 3.3 µM (Cryptosporidium parvum) [%] | Hs18S ΔCT (HCT-8 host cells (Hs18S); human, 41 h, 10 μM) | cytotoxicity at 41 h, 10 µM (in vitro; human) [%] | Hs18S ΔCT (HCT-8 host cells (Hs18S); [1]) | cytotoxicity at 41 h, 10 µM (in vitro) [%] | cytotoxicity at 10 µM (in vitro) [%] | Hs18S ΔCT (HCT-8 host cells (Hs18S)) |
| --- | --- | --- | --- | --- | --- | --- | --- | --- |
| COc1ccc2cc1Oc1ccc(cc1)C[C@H]1c3cc(c(OC)cc3CCN1C)Oc1c(OC)c(OC)cc3c1[C@H](C2)N(C)CC3 [TETRANDRINE] | 80.4 | 1 | -0.04 | -2.5 |  |  |  |  |
| C=C[C@H]1CN2CC[C@H]1C[C@H]2[C@H](O)c1ccnc2ccccc12 [CINCHONIDINE] | 3.76 |  |  |  | -0.20 | -15.2 |  |  |
| C=C[C@](C)(O)CC[C@@H]1[C@@]2(C)CCCC(C)(C)[C@@H]2CC[C@@]1(C)O [SCLAREOL] | 7.29 |  | -0.15 | -10.7 |  |  |  |  |
| CC1(C)CC2C1CCC1(C)OC2(C)CCC1O (centres unmarked) [3,7-EPOXYCARYOPHYLLAN-6-OL] | 12.9 |  | 0.11 | 7.2 |  |  |  |  |
| Cc1nccc2c1[nH]c1ccccc12 [HARMANE] | -23.2 |  |  |  | 0.07 |  | 4.5 |  |
| COC(=O)C[C@H]1C(C)(C)[C@@H](OC(C)=O)[C@@H]2CC3=C4CC(=O)O[C@@H](c5ccoc5)[C@]4(C)CC[C@@H]3[C@@]1(C)C2=O [FISSINOLIDE] | -39.8 |  | -0.81 | -75.3 |  |  |  |  |
| NC(=O)NC1NC(=O)NC1=O (centres unmarked) [ALLANTOIN] | 8.13 |  | -0.22 | -16.1 |  |  |  |  |
| C[C@@H]1O[C@@H](O[C@H]2[C@H](Oc3cc(O)c4c(=O)cc(-c5ccc(O)cc5)oc4c3)O[C@H](CO)[C@@H](O)[C@@H]2O)[C@H](O)[C@H](O)[C@H]1O [RHOIFOLIN] | 54.6 |  | -0.26 | -20 |  |  |  |  |
| C/C=C(\C)C(=O)O[C@H]1C[C@@H](OC(C)=O)[C@@]2(C(=O)OC)CO[C@H]3[C@@H](O)[C@@](C)([C@]45O[C@@]4(C)[C@H]4C[C@@H]5O[C@@H]5OC=C[C@@]54O)[C@H]4[C@]1(CO[C@]4(O)C(=O)OC)[C@@H]32 [AZADIRACHTIN] | 23.7 |  | 0.00 | -0.1 |  |  |  |  |
| C=C1CC[C@H](O)C/C1=C/C=C1\CCC[C@]2(C)[C@@H]([C@H](C)CCCC(C)C)CC[C@@H]12 [CHOLECALCIFEROL] | 0.08 |  |  |  | -0.21 |  | -15.8 |  |
| COc1ccc(-c2coc3cc(O)ccc3c2=O)c(OC)c1 [2'-METHOXYFORMONETIN] | 12.9 |  | 0.18 | 11.5 |  |  |  |  |
| O[C@H]1[C@H](O)[C@@H](O)[C@H](O)[C@@H](O)[C@H]1O [INOSITOL] | 11.9 |  |  | 5.5 | 0.08 |  |  |  |
| C=CC(C1=CC(=O)C(OC)=CC1=O)c1ccc(O)cc1 (centres unmarked) [DALBERGIONE, 4-METHOXY-4'-HYDROXY-] | 30.3 |  | 0.09 | 6.1 |  |  |  |  |
| O=C(O[C@@H]1Cc2c(O)cc(O)cc2O[C@@H]1c1cc(O)c(=O)c2c(O)c(O)cc([C@H]3Oc4cc(O)cc(O)c4C[C@H]3O)c2c1)c1cc(O)c(O)c(O)c1 [THEAFLAVIN MONOGALLATES] | 25.6 |  | -0.10 | -7.4 |  |  |  |  |
| CC(C)=CCC[C@@H](C)[C@H]1CC[C@@]2(C)C3=C(CC[C@]12C)[C@@]1(C)CC[C@H](O)C(C)(C)[C@@H]1CC3 [LANOSTEROL] | -22.5 |  | -0.24 | -18.1 |  |  |  |  |
| COC1=CC(=O)C[C@@H](C)[C@]12Oc1c(Cl)c(OC)cc(OC)c1C2=O [GRISEOFULVIN] | 66 | 9 | 0.30 | 18.7 |  |  |  |  |
| COc1cc(/C=C/C(=O)O)cc(OC)c1OC [SINAPIC ACID METHYL ETHER] | -20.8 |  |  |  | 0.66 |  | 36.6 |  |
| O=c1c(O)c(-c2ccccc2)oc2ccccc12 [3-HYDROXYFLAVONE] | 92.4 | -28 | -0.04 | -2.7 |  |  |  |  |
| NCCSSCCN [CYSTAMINE DIHYDROCHLORIDE] | 5.08 |  | -0.15 | -11.2 |  |  |  |  |
| NC(=O)NCCC[C@H](N)C(=O)O [CITRULLINE] | -44.7 |  |  |  | 0.62 |  | 34.9 |  |
| COc1ccc2c(c1)OCC(Cc1ccc(OC)c(OC)c1)C2=O (centres unmarked) | 20.2 |  |  |  | 0.04 |  | 2.4 |  |
| C[C@]1(OC(=O)/C=C/c2ccccc2)C[C@@H](O)[C@]2(O)C=CO[C@@H](O[C@@H]3O[C@H](CO)[C@@H](O)[C@H](O)[C@H]3O)[C@@H]21 [HARPAGOSIDE] | -42.1 |  | 0.36 | 21.8 |  |  |  |  |
| CC(C)=CCC[C@@H](C)[C@@H]1CC[C@]2(C)C3=C(CC[C@@]12C)[C@@]1(C)CC[C@H](O)C(C)(C)[C@@H]1CC3 [EUPHOL] | -2.84 |  | -0.29 | -22.5 |  |  |  |  |
| Oc1cc(O)c2c(c1)O[C@H](c1ccc(O)c(O)c1)[C@H](O)C2 [EPICATECHIN] | -0.62 |  | -0.09 | -6.3 |  |  |  |  |

| SMILES | inhibition at 10 µM (Cryptosporidium parvum) [%] | inhibition at 3.3 µM (Cryptosporidium parvum) [%] | Hs18S ΔCT (HCT-8 host cells (Hs18S); human, 41 h, 10 μM) | cytotoxicity at 41 h, 10 µM (in vitro; human) [%] | Hs18S ΔCT (HCT-8 host cells (Hs18S); [1]) | cytotoxicity at 41 h, 10 µM (in vitro) [%] | cytotoxicity at 10 µM (in vitro) [%] | Hs18S ΔCT (HCT-8 host cells (Hs18S)) |
| --- | --- | --- | --- | --- | --- | --- | --- | --- |
| C[C@@H](CO)NC(=O)[C@@H]1C=C2c3cccc4[nH]cc(c34)C[C@H]2N(C)C1 [ERGONOVINE MALEATE] | 2.56 |  |  |  | 0.23 |  | 14.5 |  |
| C[C@]12CC[C@@H]3c4ccc(O)cc4CC[C@H]3[C@@H]1C[C@@H](O)[C@@H]2O [ESTRIOL] | 14.4 |  | -0.12 | -8.4 |  |  |  |  |
| COC(=O)c1c(C)cc(O)cc1O [METHYL ORSELLINATE] | -34.8 |  | 0.31 | 19.6 |  |  |  |  |
| COc1ccc(C(=O)O)c(O)c1OC [2-HYDROXY-3,4-DIMETHOXYBENZOIC ACID] | 7.69 |  | 0.16 | 10.5 |  |  |  |  |
| C=C1C[C@]23C[C@@]1(O)CC[C@H]2[C@@]12C=C[C@H](O)[C@@](C)(C(=O)O1)[C@H]2[C@@H]3C(=O)O [GIBBERELLIC ACID] | 32.7 |  |  |  | 0.09 |  | 5.9 |  |
| O=C(O)/C=C/C=C/c1ccccc1 [JUAREZIC ACID] | -55.9 |  | -0.57 | -48.4 |  |  |  |  |
| COc1ccc2c(c1)OC[C@@H](Cc1ccc(OC)c(OC)c1)[C@@H]2O [3-DESHYDROXYSAPPANOL TRIMETHYL ETHER] | 7.69 |  | 0.05 | 3.2 |  |  |  |  |
| C[C@@H]1O[C@@H](Oc2c(-c3ccc(O)c(O)c3)oc3cc(O)cc(O)c3c2=O)[C@H](O)[C@H](O)[C@H]1O [QUERCITRIN] | 3.89 |  |  |  | -0.65 |  | -57.2 |  |
| CCCCCCCCCCCCCCCC(=O)NCCO [PALMIDROL] | -7.35 |  | 0.05 | 3.5 |  |  |  |  |
| COC1=CC(=O)C(C(=O)c2ccccc2)=CC1=O [2-BENZOYL-5-METHOXYBENZOQUINONE] | 16.2 |  | -0.59 | -50.7 |  |  |  |  |
| COc1ccc2c(=O)ccoc2c1 [7-METHOXYCHROMONE] | -17.1 |  | -0.34 | -26.1 |  |  |  |  |
| COc1ccc(-c2c(O)c3c(OC)c4c(cc3oc2=O)OC(C)(C)C=C4)cc1 [ROBUSTIC ACID] | 9.13 |  | 0.28 | 17.8 |  |  |  |  |
| COc1ccc(-c2cc(=O)c3c(OC)c(OC)c(OC)c(OC)c3o2)cc1OC [NOBILETIN] | 94.6 | -25 | 0.26 | 16.2 |  |  |  |  |
| CC(=O)O[C@@H]1C[C@H]2C(C)(C)C(=O)CC[C@]2(C)[C@H]2CC[C@@]3(C)[C@H](c4ccoc4)OC(=O)[C@H]4O[C@]43[C@@]21C [DIHYDROGEDUNIN] | 33.3 |  | -0.24 | -17.9 |  |  |  |  |
| C[C@H]1[C@H]2CC[C@H]3[C@@H]4CC=C5C[C@@H](N(C)C)CC[C@]5(C)[C@H]4CC[C@]23CN1C [CONESSINE] | -2.33 |  | -0.14 | -10.4 |  |  |  |  |
| CN[C@@H]1[C@@H](O)[C@@H](O[C@@H]2[C@@H](O)[C@H](O[C@H]3OC(CN)=CC[C@H]3N)[C@@H](N)C[C@H]2N)OC[C@]1(C)O [SISOMICIN SULFATE] | 41.1 |  | -0.11 | -7.8 |  |  |  |  |
| COC(=O)C[C@H]1C(C)(C)C(=O)[C@@H]2CC3C4=CC(=O)O[C@@H](c5ccoc5)[C@]4(C)CC[C@@H]3[C@@]1(C)C2=O (some centres unmarked) [CARAPIN] | 30.7 |  | -0.07 | -5.2 |  |  |  |  |
| NC(C(=O)O)C(O)C(=O)O (stereo not drawn) [d,l-threo-3-HYDROXYASPARTIC ACID] | 17.8 |  | 0.16 | 10.7 |  |  |  |  |
| C=C(C)[C@@H]1CC[C@]2(C(=O)O)CC[C@]3(C)[C@H](CC[C@@H]4[C@@]5(C)CC[C@H](O)C(C)(C)[C@@H]5CC[C@]43C)[C@@H]12 [BETULINIC ACID] | 33 |  |  |  | -0.23 |  | -17.4 |  |
| O=c1cc[nH]c(=O)[nH]1 [URACIL] | 2.08 |  |  | -21.4 | -0.28 |  |  |  |
| Cn1c(=O)c2c(ncn2C)n(C)c1=O [CAFFEINE] | 3.94 |  |  |  |  |  | 16.9 | 0.27 |
| CCCCC[C@H](CC(=O)O)C(=O)O [NONIC ACID] | -17.1 |  | 0.06 | 3.9 |  |  |  |  |
| Cn1cnc2c1c(=O)[nH]c(=O)n2C [THEOBROMINE] | -18.1 |  | 0.03 | 2.2 |  |  |  |  |
| CCOC(=O)C1C(C=C(C)C)C1(C)C (centres unmarked) [CHRYSANTHEMIC ACID, ETHYL ESTER] | 24.6 | 91 |  |  | -0.97 | -95.7 |  |  |
